Reference: the NIST ThermoML archive (doi:10.1016/j.fluid.2011.12.029)

Conditions: Liquid, Vibrating tube method

CCC[n+]1ccccc1Oc1ccc(Cl)c[n+]1CCOS(=O)(=O)[O-].F[B-](F)(F)F
Conditions	mass density [kg/m3]
283.15 K, 100 kPa	1264.92
283.15 K, 5000 kPa	1266.85
283.15 K, 10000 kPa	1269.01
283.15 K, 15000 kPa	1270.98
283.15 K, 20000 kPa	1273.05
283.15 K, 25000 kPa	1274.97
283.15 K, 30000 kPa	1276.87
283.15 K, 35000 kPa	1278.73
283.15 K, 40000 kPa	1280.58
283.15 K, 45000 kPa	1282.38
283.15 K, 50000 kPa	1284.12
283.15 K, 55000 kPa	1285.76
283.15 K, 60000 kPa	1287.38
283.15 K, 65000 kPa	1289.03
288.15 K, 100 kPa	1260.92
288.15 K, 5000 kPa	1262.99
288.15 K, 10000 kPa	1265.09
288.15 K, 15000 kPa	1267.22
288.15 K, 20000 kPa	1269.26
288.15 K, 25000 kPa	1271.11
288.15 K, 30000 kPa	1273.09
288.15 K, 35000 kPa	1275.02
288.15 K, 40000 kPa	1276.87
288.15 K, 45000 kPa	1278.72
288.15 K, 50000 kPa	1280.38
288.15 K, 55000 kPa	1282.18
288.15 K, 60000 kPa	1283.78
288.15 K, 65000 kPa	1285.51
293.15 K, 100 kPa	1257.14
293.15 K, 5000 kPa	1259.28
293.15 K, 10000 kPa	1261.4
293.15 K, 15000 kPa	1263.43
293.15 K, 20000 kPa	1265.5
293.15 K, 25000 kPa	1267.47
293.15 K, 30000 kPa	1269.5
293.15 K, 35000 kPa	1271.32
293.15 K, 40000 kPa	1273.23
293.15 K, 45000 kPa	1275.01
293.15 K, 50000 kPa	1276.8
293.15 K, 55000 kPa	1278.62
293.15 K, 60000 kPa	1280.22
293.15 K, 65000 kPa	1281.96
298.15 K, 100 kPa	1253.37
298.15 K, 5000 kPa	1255.54
298.15 K, 10000 kPa	1257.73
298.15 K, 15000 kPa	1259.9
298.15 K, 20000 kPa	1262.01
298.15 K, 25000 kPa	1263.98
298.15 K, 30000 kPa	1265.98
298.15 K, 35000 kPa	1267.9
298.15 K, 40000 kPa	1269.81
298.15 K, 45000 kPa	1271.6
298.15 K, 50000 kPa	1273.47
298.15 K, 55000 kPa	1275.21
298.15 K, 60000 kPa	1276.93
298.15 K, 65000 kPa	1278.65
303.15 K, 100 kPa	1249.77
303.15 K, 5000 kPa	1252.02
303.15 K, 10000 kPa	1254.17
303.15 K, 15000 kPa	1256.38
303.15 K, 20000 kPa	1258.37
303.15 K, 25000 kPa	1260.46
303.15 K, 30000 kPa	1262.48
303.15 K, 35000 kPa	1264.47
303.15 K, 40000 kPa	1266.35
303.15 K, 45000 kPa	1268.13
303.15 K, 50000 kPa	1269.94
303.15 K, 55000 kPa	1271.81
303.15 K, 60000 kPa	1273.55
303.15 K, 65000 kPa	1275.21
308.15 K, 100 kPa	1246.14
308.15 K, 5000 kPa	1248.19
308.15 K, 10000 kPa	1250.57
308.15 K, 15000 kPa	1252.6
308.15 K, 20000 kPa	1254.8
308.15 K, 25000 kPa	1256.85
308.15 K, 30000 kPa	1258.87
308.15 K, 35000 kPa	1260.93
308.15 K, 40000 kPa	1262.88
308.15 K, 45000 kPa	1264.72
308.15 K, 50000 kPa	1266.61
308.15 K, 55000 kPa	1268.36
308.15 K, 60000 kPa	1270.11
308.15 K, 65000 kPa	1271.84
313.15 K, 100 kPa	1242.44
313.15 K, 5000 kPa	1244.75
313.15 K, 10000 kPa	1247.02
313.15 K, 15000 kPa	1249.22
313.15 K, 20000 kPa	1251.35
313.15 K, 25000 kPa	1253.46
313.15 K, 30000 kPa	1255.5
313.15 K, 35000 kPa	1257.51
313.15 K, 40000 kPa	1259.52
313.15 K, 45000 kPa	1261.48
313.15 K, 50000 kPa	1263.42
313.15 K, 55000 kPa	1265.2
313.15 K, 60000 kPa	1267
313.15 K, 65000 kPa	1268.66
318.15 K, 100 kPa	1238.82
318.15 K, 5000 kPa	1241.01
318.15 K, 10000 kPa	1243.39
318.15 K, 15000 kPa	1245.52
318.15 K, 20000 kPa	1247.69
318.15 K, 25000 kPa	1249.81
318.15 K, 30000 kPa	1251.93
318.15 K, 35000 kPa	1253.97
318.15 K, 40000 kPa	1255.96
318.15 K, 45000 kPa	1257.93
318.15 K, 50000 kPa	1259.75
318.15 K, 55000 kPa	1261.48
318.15 K, 60000 kPa	1263.53
318.15 K, 65000 kPa	1265.2
323.15 K, 100 kPa	1235.3
323.15 K, 5000 kPa	1237.63
323.15 K, 10000 kPa	1239.98
323.15 K, 15000 kPa	1242.24
323.15 K, 20000 kPa	1244.44
323.15 K, 25000 kPa	1246.62
323.15 K, 30000 kPa	1248.63
323.15 K, 35000 kPa	1250.7
323.15 K, 40000 kPa	1252.76
323.15 K, 45000 kPa	1254.69
323.15 K, 50000 kPa	1256.63
323.15 K, 55000 kPa	1258.52
323.15 K, 60000 kPa	1260.31
323.15 K, 65000 kPa	1262.15
328.15 K, 100 kPa	1231.68
328.15 K, 5000 kPa	1233.97
328.15 K, 10000 kPa	1236.25
328.15 K, 15000 kPa	1238.61
328.15 K, 20000 kPa	1240.87
328.15 K, 25000 kPa	1243.01
328.15 K, 30000 kPa	1245.19
328.15 K, 35000 kPa	1247.33
328.15 K, 40000 kPa	1249.3
328.15 K, 45000 kPa	1251.23
328.15 K, 50000 kPa	1253.26
328.15 K, 55000 kPa	1255.02
328.15 K, 60000 kPa	1256.98
328.15 K, 65000 kPa	1258.79
333.15 K, 100 kPa	1228.25
333.15 K, 5000 kPa	1230.56
333.15 K, 10000 kPa	1232.96
333.15 K, 15000 kPa	1235.23
333.15 K, 20000 kPa	1237.65
333.15 K, 25000 kPa	1239.91
333.15 K, 30000 kPa	1241.9
333.15 K, 35000 kPa	1244.07
333.15 K, 40000 kPa	1246.16
333.15 K, 45000 kPa	1248.15
333.15 K, 50000 kPa	1250.14
333.15 K, 55000 kPa	1252
333.15 K, 60000 kPa	1253.93
333.15 K, 65000 kPa	1255.7
